Experiments:
[1] = test system: hypoxic-ischemic brain injury; test: hypoxic-ischemic brain injury mouse model, cerebral infarct volume; assay type: in vivo; settings: direct acute administration of NPD1 (10 ng, 20 ng) after hypoxic-ischemic injury, compared to control (saline) group; FIG. 2A
[2] = test system: brain mitochondria
Method: FIG. 2C is a western blot mean quantification for BAX 6A7 in naïve (n=6), saline (n=7) and NPD1 (n=8) at 4 h after ischemic injury.

## CC/C=C\C[C@H](O)\C=C/C=C/C=C/[C@H](O)C/C=C\C/C=C\CCC(=O)O [NPD1, neuroprotection D1]
[1]
  cerebral infarct volumes: significant reduction in cerebral infarct volumes
[2]; NPD1 treatment after hypoxic-ischemic injury
  mitochondrial Ca2+ buffering capacity: preserved mitochondrial Ca2+ buffering capacity
[2]; NPD1 treatment, BAX 6A7 western blot at 4 h after ischemic injury (FIG. 2C)
  mitochondria-related cell death pathways: reduced mitochondria-related cell death pathways
